Test results: patent publication US6977262B2, “Dihydropyrazolopyridine compounds and pharmaceutical use thereof” (Mitsubishi Pharma Corporation, priority 2001, dated 2005)

In the case of `CCCC1=C(C#N)C(c2ccccc2Cl)c2cnn(C(=O)Nc3ccccc3)c2N1` (stereo not drawn) [Example 283, 4-(2-Chlorophenyl)-5-cyano-4,7-dihydro-1-phenylcarbamoyl-6-propyl-1 H-pyrazolo[3,4-b]pyridine], the melting point is reported as 138 to 140 °C. `CCCC1=C(C#N)C(c2ccccc2Cl)c2cn(C(=O)Nc3ccccc3)nc2N1` (stereo not drawn) [Example 284, 4-(2-Chlorophenyl)-5-cyano-4,7-dihydro-2-phenylcarbamoyl-6-propyl-2H-pyrazolo[3,4-b]pyridine] showed a melting point of 167 to 171 °C. `CCCC1=C(C#N)C(c2cccc3nonc23)c2cn(C(=O)OC(C)(C)C)nc2N1` (stereo not drawn) [Example 288, 4-(2,1,3-Benzoxadiazol-4-yl)-2-tert-butoxycarbonyl-5-cyano-4,7-dihydro-6-propyl-2H-pyrazolo[3,4-b]pyridine] showed a melting point of 168 to 170 °C. For `CCCC1=C(C#N)C(c2ccccc2Cl)c2c(n[nH]c2-c2ccc(OC)cc2)N1` (stereo not drawn) [Example 290, 4-(2-Chlorophenyl)-5-cyano-4,7-dihydro-3-(4-methoxyphenyl)-6-propyl-2H-pyrazolo[3,4-b]pyridine], the melting point was 284 °C. In the case of `N#CC1=C(c2ccc(Br)s2)Nc2n[nH]cc2C1c1cccc2nonc12` (stereo not drawn) [Example 291, 4-(2,1,3-Benzoxadiazol-4-yl)-6-(2-bromothiophen-5-yl)-5-cyano-4,7-dihydro-2H-pyrazolo[3,4-b]pyridine], the melting point is reported as 208 °C. `Cc1ccsc1C1=C(C#N)C(c2cccc3nonc23)c2c[nH]nc2N1` (stereo not drawn) [Example 292, 4-(2,1,3-Benzoxadiazol-4-yl)-5-cyano-4,7-dihydro-6-(3-methylthiophen-2-yl)-2H-pyrazolo[3,4-b]pyridine] gave a melting point of 202 °C. For `COCn1cc(C2=C(C#N)C(c3cccc4nonc34)c3c[nH]nc3N2)c2ccccc21` (stereo not drawn) [Example 293, 4-(2,1,3-Benzoxadiazol-4-yl)-5-cyano-4,7-dihydro-6-(1-methoxymethylindol-3-yl)-2H-pyrazolo[3,4-b]pyridine], the melting point was 200 °C. `CCCC1=C(C#N)C(c2ccccc2Cl)c2c(n[nH]c2-c2cccs2)N1` (stereo not drawn) [Example 294, 4-(2-Chlorophenyl)-5-cyano-4,7-dihydro-6-propyl-3-(thiophen-2-yl)-2H-pyrazolo[3,4-b]pyridine] showed a melting point of 256 °C. Molecule `CCCC1=C(C#N)C(c2ccccc2Cl)c2c(n[nH]c2-c2ccco2)N1` (stereo not drawn) [Example 295, 4-(2-Chlorophenyl)-5-cyano-4,7-dihydro-3-(furan-2-yl)-6-propyl-2H-pyrazolo[3,4-b]pyridine] has a melting point of 253 °C. In the case of `CCCC1=C(C#N)C(c2ccccc2Cl)c2c(n[nH]c2-c2ccccc2OC)N1` (stereo not drawn) [Example 296, 4-(2-Chlorophenyl)-5-cyano-4,7-dihydro-3-(2-methoxyphenyl)-6-propyl-2H-pyrazolo[3,4-b]pyridine], the melting point is reported as over 270 °C. `CCCC1=C(C#N)C(c2ccccc2Cl)c2c(n[nH]c2-c2cccc(OC)c2)N1` (stereo not drawn) [Example 297, 4-(2-Chlorophenyl)-5-cyano-4,7-dihydro-3-(3-methoxyphenyl)-6-propyl-2H-pyrazolo[3,4-b]pyridine] showed a melting point of 239 °C. Work on `N#CC1=C(c2ccc(Cl)s2)Nc2n[nH]cc2C1c1cccc2nonc12` (stereo not drawn) [Example 298, 4-(2,1,3-Benzoxadiazol-4-yl)-6-(2-chlorothiophen-5-yl)-5-cyano-4,7-dihydro-2H-pyrazolo[3,4-b]pyridine] yielded a melting point of 210 °C. Molecule `Cc1ccc(C2=C(C#N)C(c3cccc4nonc34)c3c[nH]nc3N2)s1` (stereo not drawn) [Example 299, 4-(2,1,3-Benzoxadiazol-4-yl)-5-cyano-4,7-dihydro-6-(2-methylthiophen-5-yl)-2H-pyrazolo[3,4-b]pyridine] has a melting point of 192 °C. Work on `CCCC1=C(C#N)C(c2ccccc2Cl)c2c(n[nH]c2-c2cccc3ccccc23)N1` (stereo not drawn) [Example 300, 4-(2-Chlorophenyl)-5-cyano-4,7-dihydro-3-(naphthalen-1-yl)-6-propyl-2H-pyrazolo[3,4-b]pyridine] yielded a melting point of 254 °C. With `CCCC1=C(C#N)C(c2ccccc2Cl)c2c(n[nH]c2-c2ccc3ccccc3c2)N1` (stereo not drawn) [Example 301, 4-(2-Chlorophenyl)-5-cyano-4,7-dihydro-3-(naphthalen-2-yl)-6-propyl-2H-pyrazolo[3,4-b]pyridine] the melting point was over 270 °C. Molecule `CCCC1=C(C#N)C(c2ccccc2Cl)c2c(n[nH]c2CCC)N1` (stereo not drawn) [Example 302, 4-(2-Chlorophenyl)-5-cyano-4,7-dihydro-3,6-dipropyl-2H-pyrazolo[3,4-b]pyridine] has a melting point of 237 °C. `CCCCc1[nH]nc2c1C(c1ccccc1Cl)C(C#N)=C(CCC)N2` (stereo not drawn) [Example 304, 3-Butyl-4-(2-chlorophenyl)-5-cyano-4,7-dihydro-6-propyl-2H-pyrazolo[3,4-b]pyridine] showed a melting point of 212 °C. `N#CC1=C(c2cc3ccccc3s2)Nc2n[nH]cc2C1c1cccc2nonc12` (stereo not drawn) [Example 305, 4-(2,1,3-Benzoxadiazol-4-yl)-6-(benzothiophen-2-yl)-5-cyano-4,7-dihydro-2H-pyrazolo[3,4-b]pyridine] showed a melting point of 220 °C. Molecule `N#CC1=C(C2CCCCC2)Nc2n[nH]cc2C1c1ccccc1Cl` (stereo not drawn) [Example 306, 4-(2-Chlorophenyl)-5-cyano-6-cyclohexyl-4,7-dihydro-2H-pyrazolo[3,4-b]pyridine] has a melting point of 163 °C. Work on `CC(C)(C)C1=C(C#N)C(c2ccccc2Cl)c2c[nH]nc2N1` (stereo not drawn) [Example 307, 6-t-Butyl-4-(2-chlorophenyl)-5-cyano-4,7-dihydro-2H-pyrazolo[3,4-b]pyridine] yielded a melting point of 198 °C. `CCCC1=C(C#N)C(c2ccccc2Cl)c2c(n[nH]c2C2CC2)N1` (stereo not drawn) [Example 308, 4-(2-Chlorophenyl)-5-cyano-3-cyclopropyl-4,7-dihydro-6-propyl-2H-pyrazolo[3,4-b]pyridine] gave a melting point of 270 °C. Work on `CCCC1=C(C#N)C(c2ccccc2Cl)c2c(n[nH]c2CC)N1` (stereo not drawn) [Example 309, 4-(2-Chlorophenyl)-5-cyano-4,7-dihydro-3-ethyl-6-propyl-2H-pyrazolo[3,4-b]pyridine] yielded a melting point of 269 °C. Work on `CCCC1=C(C#N)C(c2ccccc2Cl)c2c(n[nH]c2C(C)(C)C)N1` (stereo not drawn) [Example 310, 3-t-Butyl-4-(2-chlorophenyl)-5-cyano-4,7-dihydro-6-propyl-2H-pyrazolo[3,4-b]pyridine] yielded a melting point of over 270 °C. `CCCC1=C(C#N)C(c2ccccc2Cl)c2c(n[nH]c2C2CCCCC2)N1` (stereo not drawn) [Example 311, 4-(2-Chlorophenyl)-5-cyano-3-cyclohexyl-4,7-dihydro-6-propyl-2H-pyrazolo[3,4-b]pyridine] gave a melting point of over 270 °C. With `N#CC1=C(C2CCCCCC2)Nc2n[nH]cc2C1c1ccccc1Cl` (stereo not drawn) [Example 312, 4-(2-Chlorophenyl)-5-cyano-6-cycloheptyl-4,7-dihydro-2H-pyrazolo[3,4-b]pyridine] the melting point was 146 °C. Molecule `N#CC1=C(C2CCC2)Nc2n[nH]cc2C1c1ccccc1Cl` (stereo not drawn) [Example 313, 4-(2-Chlorophenyl)-5-cyano-6-cyclobutyl-4,7-dihydro-2H-pyrazolo[3,4-b]pyridine] has a melting point of 188 °C. For `CCCC1=C(C#N)C(c2ccccc2Cl)c2c(n[nH]c2C2CCCC2)N1` (stereo not drawn) [Example 314, 4-(2-Chlorophenyl)-5-cyano-3-cyclopentyl-4,7-dihydro-6-propyl-2H-pyrazolo[3,4-b]pyridine], the melting point was over 270 °C. With `CCCC1=C(C#N)C(c2ccccc2Cl)c2c(n[nH]c2C(C)C)N1` (stereo not drawn) [Example 315, 4-(2-Chlorophenyl)-5-cyano-4,7-dihydro-6-propyl-3-isopropyl-2H-pyrazolo[3,4-b]pyridine] the melting point was over 270 °C. For `N#CC1=C(C2CCCC2)Nc2n[nH]cc2C1c1ccccc1Cl` (stereo not drawn) [Example 316, 4-(2-Chlorophenyl)-5-cyano-6-cyclopentyl-4,7-dihydro-2H-pyrazolo[3,4-b]pyridine], the melting point was 225 °C. `N#CC1=C(C2CCCC2)Nc2n[nH]cc2C1c1cccc(C#N)c1Br` (stereo not drawn) [Example 317, 4-(2-Bromo-3-cyanophenyl)-5-cyano-6-cyclopentyl-4,7-dihydro-2H-pyrazolo[3,4-b]pyridine] showed a melting point of 247 °C. With `N#CC1=C(C2CCCC2)Nc2n[nH]cc2C1c1cccc2nonc12` (stereo not drawn) [Example 318, 4-(2,1,3-Benzoxadiazol-4-yl)-5-cyano-6-cyclopentyl-4,7-dihydro-2H-pyrazolo[3,4-b]pyridine] the melting point was 193 °C. Work on `CC(C)(C)C1=C(C#N)C(c2cccc(C#N)c2Br)c2c[nH]nc2N1` (stereo not drawn) [Example 319, 4-(2-Bromo-3-cyanophenyl)-6-t-butyl-5-cyano-4,7-dihydro-2H-pyrazolo[3,4-b]pyridine] yielded a melting point of 251 °C. Molecule `CC(C)(C)C1=C(C#N)C(c2cccc3nonc23)c2c[nH]nc2N1` (stereo not drawn) [Example 320, 4-(2,1,3-Benzoxadiazol-4-yl)-6-t-butyl-5-cyano-4,7-dihydro-2H-pyrazolo[3,4-b]pyridine] has a melting point of 204 °C. `N#CC1=C(C2CCC2)Nc2n[nH]cc2C1c1cccc(C#N)c1Br` (stereo not drawn) [Example 321, 4-(2-Bromo-3-cyanophenyl)-5-cyano-6-cyclobutyl-4,7-dihydro-2H-pyrazolo[3,4-b]pyridine] showed a melting point of 278 °C. Molecule `N#CC1=C(C2CCC2)Nc2n[nH]cc2C1c1cccc2nonc12` (stereo not drawn) [Example 322, 4-(2,1,3-Benzoxadiazol-4-yl)-5-cyano-6-cyclobutyl-4,7-dihydro-2H-pyrazolo[3,4-b]pyridine] has a melting point of 194 °C. `N#CC1=C(C2CCCCC2)Nc2n[nH]cc2C1c1cccc2nonc12` (stereo not drawn) [Example 323, 4-(2,1,3-Benzoxadiazol-4-yl)-5-cyano-6-cyclohexyl-4,7-dihydro-2H-pyrazolo[3,4-b]pyridine] showed a melting point of 210 °C. For `N#CC1=C(C2CCCCCC2)Nc2n[nH]cc2C1c1cccc2nonc12` (stereo not drawn) [Example 324, 4-(2,1,3-Benzoxadiazol-4-yl)-5-cyano-6-cycloheptyl-4,7-dihydro-2H-pyrazolo[3,4-b]pyridine], the melting point was 228 °C. Work on `N#CC1=C(C2CCCCC2)Nc2n[nH]cc2C1c1cccc(C#N)c1Br` (stereo not drawn) [Example 325, 4-(2-Bromo-3-cyanophenyl)-5-cyano-6-cyclohexyl-4,7-dihydro-2H-pyrazolo[3,4-b]pyridine] yielded a melting point of 193 °C. `N#CC1=C(C2CCCCCC2)Nc2n[nH]cc2C1c1cccc(C#N)c1Br` (stereo not drawn) [Example 326, 4-(2-Bromo-3-cyanophenyl)-5-cyano-6-cycloheptyl-4,7-dihydro-2H-pyrazolo[3,4-b]pyridine] showed a melting point of 252 °C.
